From patent US10722505B2, “Substituted 2,4 diamino-quinoline as new anticancer agents” (GENOSCIENCE PHARMA, priority 2014, dated 2020)
Counter-ions that a name gives are not always drawn.

Experiments:
HCT-116 cell line = test: CellTiter-Glo growth inhibition assay, HCT-116; assay type: cell-based; conditions: Homo sapiens; HCT-116, colorectal carcinoma, 72 h
Description: (§1) All cell lines were maintained in medium containing 1% penicillin-streptomycin (Dutscher, P06-07100) and 10% Fetal Bovine Serum (Gibco, W3387L) except 20% for KG-1 cell line and PBMC, and cultured at 37° C. with 5% CO2.
(§2) HepG2, Huh7, HCT-116, MDA-MB-231 and A375 cell lines were cultured in Dulbecco's modified Eagle's medium (Dutscher, L0103).
(§3) Cell viability was measured using the CellTiter-Glo® luminescent cell viability assay as described by the manufacturer (Promega, Ref G7571) using an Infinite F200Pro luminometer (Tecan). Briefly, for adherent cells, cells were plated onto 96-well plates (white with clear bottom) in 90 μL of media per well and were allowed to grow overnight before the assay. For cells growing in suspension, cells were plated onto 96-well plates immediately before the assay.
(§4) Compounds were added at different concentrations to each well, and cell cultures were incubated for 72 h. Vehicle (H2O) was used as a control, and all compounds were tested in a constant percentage of H2O. After addition of 100 μL of CellTiter-Glo®, luminescence was measured using an Infinite F200Pro (Tecan). EC50 values were determined as the dose of compound required to reduce luminescent values to 50% of the signal obtained for untreated cell cultures. The experimental data were analyzed using a computer program, Graphpad Prism v5 (GraphPad Software, Inc. La Jolla, Calif.). […]

A375 cell line = test: CellTiter-Glo growth inhibition assay, A375; assay type: cell-based; conditions: Homo sapiens, A-375; A375, malignant melanoma, 72 h
Description: as §1, §2, §3, §4

MOLM-14 cell line = test: CellTiter-Glo cell viability / growth inhibition assay, MOLM-14 (Example 5); assay type: cell-based; conditions: Homo sapiens, 72 h
Description: as §1
MOLM-14 cell line was maintained in MEM alpha medium (Gibco, 22561-021).
as §3
Compounds were added at different concentrations to each well, and cell cultures were incubated for 72 h. Vehicle (H2O) was used as a control, and all compounds were tested in a constant percentage of H2O. After addition of 100 μL of CellTiter-Glo®, luminescence was measured using an Infinite F200Pro (Tecan). EC50 values were determined as the dose of compound required to reduce luminescent values to 50% of the signal obtained for untreated cell cultures. The experimental data were analyzed using a computer program, Graphpad Prism v5 (GraphPad Software, Inc. La Jolla, Calif.).
All experiments were at least done in duplicate and repeated two independent times.

HepG2 cell line = test: CellTiter-Glo growth inhibition assay, HepG2; assay type: cell-based; conditions: Homo sapiens; HepG2, hepatocellular carcinoma, 72 h
Description: as §1, §2, §3, §4

[1] = tested on: LI1098 HCC patient derived cells; test: CellTiter-Glo growth inhibition, HCC patient-derived cells LI1098; assay type: cell-based, human; conditions: Homo sapiens; LI1098, 72 hours
Description: (§5) The patient derived Hepatocellular Carcinoma (HCC) cells were maintained in medium respectively described in table 15 containing 1% penicillin-streptomycin (Life Technologies, 15070-063), with a supplements for primary cell culture (PCS) containing hydrocortisone (50 nM), Epidermal Growth Factor (20 ng/ml), β-fibroblast Growth Factor (10 ng/ml), Heparin (2 μg/ml) ITS liquid media supplement (1×) and non-essential amino acid (NEAA, 0.01 mM, 1×). The primary cell were cultured in a humidified atmosphere (95% relative humidity) with 5% CO2 at 37° C.
(§6) The cell growth inhibition assay was performed as described previously in example 5 using the CellTiter-Glo® luminescent cell viability assay as described by the manufacturer (Promega, Ref G7571). The number of cells seeded per well (in 96-Well Flat Clear Bottom Black Polystyrene TC-Treated Microplates, Cat #3340, Corning®) is described in the table 16. A backseal black sticker (Cat #6005189, Perkin Elmer) was placed to the bottom of each plate before recording CellTiter-Glo® luminescence.
(§7) The experimental data are analyzed using a computer program, Graphpad Prism V 5.0 (GraphPad Software, Inc. La Jolla, Calif.) and EC50 values were determined as the dose of compound required to reduce absorbance values to 50% of the signal obtained for vehicle treated cell cultures and were a mean of at least three independent experiments.

[2] = tested on: LI0574 HCC patient derived cells; test: CellTiter-Glo growth inhibition, HCC patient-derived cells LI0574; assay type: cell-based, human; conditions: Homo sapiens; LI0574, 72 hours
Description: as §5, §6, §7

CAKI-1 cell line = test: CellTiter-Glo growth inhibition assay, CAKI-1; assay type: cell-based; conditions: Homo sapiens, CAKI-1, 72 h
Description: (§8) CAKI-1 and 786-0 cell lines were maintained in RPMI 1640 medium (Dutscher, L0498) containing 1% penicillin-streptomycin (Dutscher, P06-07100) and 10% Fetal Bovine Serum (Gibco, W3387L) and cultured at 37° C. with 5% CO2.
as §3, with “Briefly,” for “Briefly, for adherent cells,”, “assay.” for “assay. For cells growing in suspension, cells were plated onto 96-well plates immediately before the assay.”
(§9) Compounds 2-3 and two reference compounds (Sorafenib and Sunitinib) were added at different concentrations to each well, and cell cultures were incubated for 72 h. For compound 2-3 analysis, H2O was used as a negative control (=untreated) and all concentrations were tested in a constant percentage of H2O. For Sorafenib and Sunitinib analysis, DMSO was used as a negative control (=untreated) and all concentrations were tested in a constant percentage of DMSO. 72 h after incubation of compounds, 100 μL of CellTiter-Glo® were added to each well and luminescence was measured using an Infinite F200Pro (Tecan). EC50 values were determined as the dose of compound required to reduce luminescent values to 50% of the signal obtained for untreated cell cultures. The experimental data were analyzed using a computer program, Graphpad Prism v5 (GraphPad Software, Inc. La Jolla, Calif.). All experiments were at least done in triplicate and repeated at least three independent times.

[3] = tested on: LI0050 HCC patient derived cells; test: CellTiter-Glo growth inhibition, HCC patient-derived cells LI0050; assay type: cell-based, human; conditions: Homo sapiens; LI0050, 72 hours
Description: as §5, §6, §7

[4] = tested on: LI0801 HCC patient derived cells; test: CellTiter-Glo growth inhibition, HCC patient-derived cells LI0801; assay type: cell-based, human; conditions: Homo sapiens; LI0801, 72 hours
Description: as §5, §6, §7

[5] = tested on: LI1005 HCC patient derived cells; test: CellTiter-Glo growth inhibition, HCC patient-derived cells LI1005; assay type: cell-based, human; conditions: Homo sapiens; LI1005, 72 hours
Description: as §5, §6, §7

[6] = tested on: LI1646 HCC patient derived cells; test: CellTiter-Glo growth inhibition, HCC patient-derived cells LI1646; assay type: cell-based, human; conditions: Homo sapiens; LI1646, 72 hours
Description: as §5, §6, §7

[7] = tested on: LI0612 HCC patient derived cells; test: CellTiter-Glo growth inhibition, HCC patient-derived cells LI0612; assay type: cell-based, human; conditions: Homo sapiens; LI0612, 72 hours
Description: as §5, §6, §7

786-O cell line = test: CellTiter-Glo growth inhibition assay, 786-O; assay type: cell-based; conditions: Homo sapiens, 786-0, 72 h
Description: as §8
as §3, with “Briefly,” for “Briefly, for adherent cells,”, “assay.” for “assay. For cells growing in suspension, cells were plated onto 96-well plates immediately before the assay.”
as §9

[8] = tested on: LI0752 HCC patient derived cells; test: CellTiter-Glo growth inhibition, HCC patient-derived cells LI0752; assay type: cell-based, human; conditions: Homo sapiens; LI0752, 72 hours
Description: as §5, §6, §7

BEL-7402 cells line = test: CellTiter-Glo growth inhibition assay, BEL-7402 (internal control); assay type: cell-based; conditions: Homo sapiens, 72 h
Description: When performing the assay, dose response test of Doxorubicin on BEL-7402 cells line (human primary hepatocellular carcinoma) will be used as internal control in each assay plate for the assay. The MEM medium supplemented with 5% H2O (5×) will be added into the cells as a negative controls. The final H2O concentration was 1% in each well.
Cells in log-phase are collected and counted. Cell suspensions are added to each well of 384-well plate at 800 cells per well (total volume 40 μl). The margin wells are filled with PBS buffer. Test compound at various concentrations are added in duplicates (add 10 μl 5× compound solutions to the plate). The assay plate is incubated for 72 h in 37° C./5% CO2 incubator. Cell viability was measured using the CellTiter-Glo® luminescent cell viability assay as described by the manufacturer (Promega, Ref G7571). After addition of 100 μL of CellTiter-Glo® reactifs solution, luminescence was measured using a PHERAstar Plus luminometer. Data were recorded by PHERAstar Plus, Data acquisition and analysis were performed using Microsoft Excel program and GraphPad Prism v.6 software.

## Cc1cc(Nc2cc(N3CCC(NC(C)(C)C)CC3)c3ccccc3n2)ccc1Nc1nccc(-c2cccnc2)n1 [Compound 4-3, 2-{4-[4-(pyridin-3-yl)-2-pyrimidinamino]-3-methyl-phenylamino}-4-(4-tert-butylaminopiperidin-1-yl)-quinoline hydrochloride salt]
HCT-116 cell line
  EC50: 1800 nM
A375 cell line
  EC50: 1400 nM
MOLM-14 cell line; MOLM-14, 4 μM
  viability at 4 µM: 0.5%
MOLM-14 cell line; MOLM-14, 10 μM
  viability at 10 µM: 0.2%
MOLM-14 cell line; MOLM-14, acute myeloïd leukemia, FLT3-ITD heterozygote+/−
  EC50: 2300 nM
HepG2 cell line
  EC50: 6.3 µM

## CNC(=O)c1cc(Oc2ccc(NC(=O)Nc3ccc(Cl)c(C(F)(F)F)c3)cc2)ccn1 [Sorafenib]
[1]
  EC50: 10.9 µM
[2]
  EC50: 8.7 µM
CAKI-1 cell line
  EC50: 4.5 µM
[3]
  EC50: 9.1 µM
[4]
  EC50: 5.7 µM
[5]
  EC50: 14.5 µM
[6]
  EC50: 10.3 µM
[7]
  EC50: 17.9 µM
786-O cell line
  EC50: 6.8 µM
[8]
  EC50: 6.3 µM

## CCN(CC)CCNC(=O)c1c(C)[nH]c(/C=C2\C(=O)Nc3ccc(F)cc32)c1C [Sunitinib]
CAKI-1 cell line
  EC50: 1.7 µM
786-O cell line
  EC50: 6 µM

## COc1cccc2c1C(=O)c1c(O)c3c(c(O)c1C2=O)C[C@@](O)(C(=O)CO)C[C@@H]3O[C@H]1C[C@H](N)[C@H](O)[C@H](C)O1 [Doxorubicin]
BEL-7402 cells line
  EC50: 150 nM
